Legend:
[1] = target: T1, citrate synthase (Homo sapiens, UniProt O75390); experiment: Citrate synthase (CS) activity assay; format: biochemical; conditions: TTFA-treated KMS11 cells
T1 construct: Citrate synthase activity assay was measured in 0.3×10^6 cells harvested per sample and washed with PBS; endogenous in cells; host or cells: KMS11 multiple myeloma cells
T1 sequence (O75390 28-466): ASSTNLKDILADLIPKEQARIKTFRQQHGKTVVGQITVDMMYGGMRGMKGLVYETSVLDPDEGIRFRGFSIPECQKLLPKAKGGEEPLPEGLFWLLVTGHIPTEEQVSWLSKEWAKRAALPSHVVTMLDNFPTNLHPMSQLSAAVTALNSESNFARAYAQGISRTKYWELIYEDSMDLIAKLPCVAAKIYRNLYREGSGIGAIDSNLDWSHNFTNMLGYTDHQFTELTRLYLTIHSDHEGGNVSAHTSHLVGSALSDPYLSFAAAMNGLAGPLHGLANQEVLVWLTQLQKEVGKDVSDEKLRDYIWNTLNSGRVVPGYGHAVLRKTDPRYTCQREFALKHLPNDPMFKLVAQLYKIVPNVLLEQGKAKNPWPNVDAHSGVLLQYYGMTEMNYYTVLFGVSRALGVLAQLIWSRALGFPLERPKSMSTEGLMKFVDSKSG
Description: Citrate synthase activity assay was measured in 0.3×10^6 cells harvested per sample and washed with PBS. Cells were resuspended in 10 mM Tris (pH 8.5) and 0.1% Triton X-100 assay buffer, containing 300 μM acetyl CoA and 100 μM 5,5′-dithiobis(2-nitrobenzoic acid) (DTNB=molar extinction coefficient 13.6 mM^−1 cm^−1). Reaction was started by the addition of 0.5 mM oxaloacetic acid and change in absorbance recorded at 412 nm wavelength every min for 10 min. SQR, SDH and CS activity measurements were performed with 100 μL sample containing 0.3×10^6 permeabilized cells.

[2] = target: T2, succinate ubiquinone reductase (SQR) activity of Complex II (Homo sapiens, UniProt O14521+Q99643); experiment: SQR activity assay in permeabilized cells; format: biochemical; conditions: TTFA-treated KMS11 cells, 24 h
T2 construct: endogenous in cells; host or cells: KMS11 multiple myeloma cells, permeabilized
T2 sequence (Q99643 30-169): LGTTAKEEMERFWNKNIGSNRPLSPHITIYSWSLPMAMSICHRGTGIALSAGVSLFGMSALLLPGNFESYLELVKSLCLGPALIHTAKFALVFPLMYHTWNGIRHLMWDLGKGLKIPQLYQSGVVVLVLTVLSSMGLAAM
T2 sequence (O14521 57-159): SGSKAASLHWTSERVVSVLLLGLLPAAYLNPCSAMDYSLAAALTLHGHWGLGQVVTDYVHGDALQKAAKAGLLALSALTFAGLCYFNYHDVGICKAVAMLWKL
T2 sequence (P31040 43-664 partner): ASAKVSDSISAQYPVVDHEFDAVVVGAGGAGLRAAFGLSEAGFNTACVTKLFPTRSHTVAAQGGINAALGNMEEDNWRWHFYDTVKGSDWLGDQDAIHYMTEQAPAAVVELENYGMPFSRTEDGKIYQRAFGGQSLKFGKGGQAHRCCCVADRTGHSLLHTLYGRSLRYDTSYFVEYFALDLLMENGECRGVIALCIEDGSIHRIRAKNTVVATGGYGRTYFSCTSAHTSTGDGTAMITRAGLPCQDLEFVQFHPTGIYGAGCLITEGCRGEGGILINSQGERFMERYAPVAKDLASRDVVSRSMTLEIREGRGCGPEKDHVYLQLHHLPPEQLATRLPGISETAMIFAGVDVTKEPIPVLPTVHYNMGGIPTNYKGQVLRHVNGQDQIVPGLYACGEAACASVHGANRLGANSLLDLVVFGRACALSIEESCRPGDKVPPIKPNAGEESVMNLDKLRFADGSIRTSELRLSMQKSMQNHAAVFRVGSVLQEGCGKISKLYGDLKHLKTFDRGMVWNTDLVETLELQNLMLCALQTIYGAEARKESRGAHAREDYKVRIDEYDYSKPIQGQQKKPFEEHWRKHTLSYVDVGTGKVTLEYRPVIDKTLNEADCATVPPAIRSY
T2 sequence (P21912 29-280 partner): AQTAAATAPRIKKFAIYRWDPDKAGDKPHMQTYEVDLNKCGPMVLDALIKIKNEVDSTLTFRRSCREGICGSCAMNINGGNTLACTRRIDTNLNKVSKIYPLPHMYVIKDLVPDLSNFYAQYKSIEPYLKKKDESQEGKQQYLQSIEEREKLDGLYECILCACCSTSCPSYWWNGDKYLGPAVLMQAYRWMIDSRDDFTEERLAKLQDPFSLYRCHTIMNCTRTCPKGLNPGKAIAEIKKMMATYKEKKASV
Description: Given reduced oxygen consumption rates (OCR) in sensitive cells, the activities of mitochondrial Complex I and II were examined. Mitochondrial Complex I and II receive electrons from the electron donors NADH or FADH2 respectively, that are transferred to the terminal electron acceptor (O2) via a series of redox reactions. Complex I or NADH:Coenzyme Q:oxidoreductase is the largest multimeric respiratory complex of ETC comprised of over 40 subunits with its catalytic subunit containing the NADH binding site. Electrons from NADH are transferred to FMN and then to FeS clusters and finally to ubiquinone where ubiquinone is reduced to ubiquinol. […] Complex I activity was measured using an assay that relies on immunocapture of Complex I from freshly prepared cellular protein extracts. The NADH dehydrogenase activity of immunocaptured Complex I was determined by the oxidation of NADH and simultaneous reduction of the provided dye resulting in increase in absorbance. SDH and SQR activities were measured in live permeabilized cells, containing intact mitochondria pretreated with inhibitors of Complex I (rotenone), Complex III (antimycin) and Complex IV (sodium azide), allowing for selective measurement of SQR or SDH activity. […]
Succinate ubiquinone reductase (SQR) and succinate dehydrogenase (SDH) activity assays were performed by absorbance-based assays using different electron acceptors. […]

**Q.** Which results are given for O=C(CC(=O)C(F)(F)F)c1cccs1 [TTFA, 4,4,4-trifluoro-1-(2-thienyl)-1,3-butanedione]?
**A.** CS activity [1]: remained unaffected; SQR activity [2]: Significant reduction in SQR activity

Reference: patent publication US20210386752A1, “Uses of Electron Transport Chain Complex I or Complex II Inhibitors in Treating Cancer, Combination Therapies, and Diagnostic Methods Related Thereto” (Emory University, priority 2020, published 2021)
